Legend:
RBL-2H3 cell line = assay: Degranulation (β-hexosaminidase, co-secreted with histamine) in RBL-2H3 cells; assay type: cell-based; settings: RBL-2H3, IgE + antigen DNP-HAS; 120 μL bacterial culture supernatant or ketotifen 20 μg/mL; negative control (Siraganian buffer) = 1.0
Source text: It has been reported that, in an allergic reaction, histamine is expressed in tissues, causing an inflammatory reaction, and suppressing histamine secretion leads to alleviation of allergic symptoms by blocking the reaction by histamine. In the present invention, the alleviation of allergic reactions and the therapeutic effect thereon through inhibition of histamine secretion by KBL697 were further confirmed. Further, in order to confirm whether the effect for treating and preventing chronic allergies identified in Example 1 is an inherent attribute of Lactobacillus gasseri, or is a remarkable effect particularly in KBL697 among Lactobacillus gasseri, the ability to suppress histamine secretion was evaluated also for nine additional Lactobacillus gasseri strains in addition to KBL697. […]
To identify the activity of β-hexosaminidase, 25 μL of the supernatant collected in Example 2-3 was transferred to each well of a 96-well plate, and then 25 μL of substrate (p-nitrophenyl N-acetyl-D-glucosaminidase) was added to each, and followed by a reaction at 37° C. in the 5% CO2 incubator for 90 minutes. Then, 200 μL of stop solution (Na2CO3/NaHCO3) was added to stop the reaction and then absorbance was measured at 405 nm. […]

[1] = tested on: C57BL6 mice with DSS-induced colitis; assay: DSS-induced colitis in C57BL6 mice, KBL697 with or without infliximab; assay type: in vivo, mouse; settings: administered alone
Source text: Infliximab (product name Remicade) is a therapeutic recombinant antibody drug used as an injection for autoimmune diseases such as rheumatoid arthritis, ankylosing spondylitis, ulcerative colitis, Crohn's disease in adults, Crohn's disease in children, psoriasis, and psoriatic arthritis. The purpose of this study was to confirm the effect of improving intestinal disease symptoms in vivo in the case of concurrent administration of KBL697 and infliximab.
After dividing C57BL6 mice into groups of eight mice, the mice were fed tap water with 2% DSS dissolved therein for 8 days (D0 to D7), inducing colitis. At the same time, 200 μL of PBS was orally administered to the mice in the control group for 14 days (D0 to D13) daily, while 200 μL of the KBL697 strain diluted in PBS to 1×10^10 CFU/mL was orally administered to the mice in the group dosed with KBL697 so that the amount of daily administration could be set at 2×10^9 CFU. […] During the 14 days in which colitis was induced by DSS, the body weight changes of the mice in the control group and each test group were measured daily, and on the 14th day after DSS was supplied (D14), mice were subjected to autopsies to measure the length of the colon.

Compound	β-hexosaminidase (fold change) (RBL-2H3 cell line)	width of decrease in the colon length compared to control group (DSS+PBS) ([1]; 2% DSS 8 days, KBL697 2×10^9 CFU oral daily, infliximab 5 mg/kg, D14, FIGS. 18A, 18B)	effect on body weight decrease compared to control group ([1]; 2% DSS, when 14 days elapsed after the administration)
CN1CCC(=C2c3ccccc3CC(=O)c3sccc32)CC1 [Ketotifen, ketotifen]	0.3861		
infliximab: therapeutic recombinant antibody drug (product name Remicade)		significantly improved	significantly improved
